Patent US12509436B2, “Benzamide derivatives as cGAS-sting pathway agonists” (Baruch S. Blumberg Institute, priority 2018, dated 2025)

Test system: HepG2/STING/ISG54Luc reporter cells
Test: ISG54 luciferase reporter assay
Type: cell-based
Conditions: Homo sapiens, MinEC5X: minimum effective concentration to induce 5-fold luciferase activity vs mock-treated controls, 4 h post treatment, read-out: Concentration required for 5-fold of IFN-[…] induction
Description: Cell lines. Human hepatoblastoma cell line HepG2 was obtained from ATCC. Establishment of HepG2-derived cell line stably expressing human STING: HepG2 cells stably expressing wild-type human STING (HepG2/STING), were established by transduction of pCX4bsr retroviral vector (Addgene) containing the corresponding STING cDNA and selection with 10 μg/ml of blasticidin. The HepG2/STING cells were then transduced by pGreenFire ISRE lentivector system (System Biosciences) to generate a reporter cell line HepG2/STING/ISG54Luc that expresses firefly luciferase under the control of an ISG54 promoter. The pGreenFire ISRE reporter lentiviral vector contains four copies of consensus interferon stimulated response element (ISRE) sequences derived from ISG54 ISRE1, which control the expression of both green fluorescent protein (GFP) and firefly luciferase in response to IRF3 activation and IFN stimulation. HepG2/STING/ISG54Luc cells were maintained in Dulbecco's modified minimal essential medium (DMEM)/F12 (Invitrogen) supplemented with 10% fetal bovine serum, 100 U/ml penicillin and 100 μg/ml streptomycin, as well as 400 μg/ml of G418 and 2 μg/ml of puromycin.
ISG54 luciferase reporter assay: HepG2/STING/ISG54Luc reporter cells were seeded in black wall/clear bottom 96-well plates at a density of 4×10^4/well in […] of medium overnight. The test compounds were dissolved in DMSO with a stock concentration of 100 mM, and subjected to evaluation of dose-dependent effect on luciferase activity, starting from 100 μM in 2-fold dilution down to 0.78 μM. The experiments were performed in triplex wells.
The firefly luciferase activities were determined at 4 h post treatment with test compounds by using equal volume ([…]) of Steady-Glo to the culture medium (Promega), followed by luminometry in a TopCounter (Perkin Elmer).
Reporting the ISG54 promotor activation activity. The luciferase activities were converted to fold of induction relative to mock treated control. A dose-dependent curve of luciferase activities (fold of induction) for each test compound was generated using average value from the triplex wells. The activity of the test compounds was reported based on the Minimum Effective Concentration (MinEC5X) to induce 5-fold luciferase activity than that of the mock-treated controls.

SMILES	EC (5-fold induction) [µM]
O=C(Nc1cccc2ccccc12)c1cc2c(cc1Br)OCO2	≤ 50
O=C(Nc1cccc2ccccc12)c1ccccc1Br	50 to 100
O=C(Nc1cccc2ccccc12)c1ccc(Cl)cc1Br	≤ 50
O=C(Nc1cccc2ccccc12)c1ccc(Cl)cc1F	≤ 50
COc1ccc(C(=O)Nc2cccc3ccccc23)c(Br)c1	≤ 50
O=C(Nc1cccc2ccccc12)c1ccc(Cl)cc1Cl	≤ 50
Cc1cc(Cl)ccc1C(=O)Nc1cccc2ccccc12	≤ 50
O=C(Nc1cccc2ccccc12)c1cc(F)c(F)cc1Br	≤ 50
O=C(Nc1cccc2ccccc12)c1cc(F)ccc1Br	≤ 50
O=C(Nc1cccc2ccccc12)c1cccc(Cl)c1Cl	≤ 50
O=C(Nc1cccc2ccccc12)c1nccnc1Cl	≤ 50
Cn1nc(C(=O)Nc2cccc3ccccc23)c2ccccc21	≤ 50
O=C(Nc1cccc2c1CCCC2)c1cc2c(cc1Br)OCO2	≤ 50
Cc1cccc(NC(=O)c2cc3c(cc2Br)OCO3)c1Br	≤ 50
O=C(Nc1cccc(Cl)c1Cl)c1cc2c(cc1Br)OCO2	≤ 50
O=C(Nc1cccc2ccccc12)c1ccc(F)cc1Br	≤ 50
O=C(Nc1cccc2ccccc12)c1ccc(Br)cc1Cl	≤ 50
Cc1cccc(NC(=O)c2cc(F)c(F)cc2Br)c1C	50 to 100
O=C(Nc1cccc2c1CCC2)c1cc2c(cc1Br)OCO2	≤ 50
O=C1CCN(C(=O)c2cc3c(cc2Br)OCO3)c2ccccc21	≤ 50
Cc1c(Br)cccc1NC(=O)c1cc2c(cc1Br)OCO2	≤ 50
Cc1cccc(NC(=O)c2cc3c(cc2Br)OCO3)c1C	≤ 50
Cc1cccc(C)c1NC(=O)c1cc2c(cc1Br)OCO2	≤ 50
Cc1c(F)cccc1NC(=O)c1cc2c(cc1Br)OCO2	≤ 50
O=C(Nc1cccc2c1CCCC2)c1cc(F)c(F)cc1Br	≤ 50
C=C(C)c1ccccc1NC(=O)c1cc2c(cc1Br)OCO2	≤ 50
O=C(Nc1cccc2c1CCC2)c1cc(F)c(F)cc1Br	≤ 50
